Data taken from ChEMBL document CHEMBL1909046, “DrugMatrix in vitro pharmacology data”.

Tests used:
[1] = target: T1, Alpha-2C adrenergic receptor (Homo sapiens, UniProt P18825); experiment: DRUGMATRIX: Adrenergic Alpha-2C radioligand binding (ligand: [3H] MK-912); type: cell membranes, Sf9, Membrane; conditions: sf9
T1 sequence (P18825 whole entry): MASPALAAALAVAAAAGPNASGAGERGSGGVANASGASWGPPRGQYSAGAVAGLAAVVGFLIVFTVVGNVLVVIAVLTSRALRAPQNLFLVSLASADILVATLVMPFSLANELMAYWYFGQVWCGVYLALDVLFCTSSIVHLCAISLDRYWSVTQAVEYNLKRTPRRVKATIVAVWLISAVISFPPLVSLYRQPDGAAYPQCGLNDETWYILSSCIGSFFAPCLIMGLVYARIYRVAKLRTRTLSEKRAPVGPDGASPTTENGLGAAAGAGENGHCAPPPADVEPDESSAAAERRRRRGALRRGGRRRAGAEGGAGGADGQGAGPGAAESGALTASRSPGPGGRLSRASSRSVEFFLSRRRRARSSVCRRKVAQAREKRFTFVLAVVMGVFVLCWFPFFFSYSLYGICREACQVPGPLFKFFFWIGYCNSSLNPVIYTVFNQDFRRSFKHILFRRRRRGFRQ

[2] = DRUGMATRIX: Atrial Natriuretic Factor (ANF) radioligand binding (ligand: [125I] ANF (rat)); type: cell membranes, Cavia porcellus, Dunkin-Hartley, Adrenal gland, Membrane; conditions: Not Active = under 50% inhibition at 10 µM
[3] = target: Sigma non-opioid intracellular receptor 1 (Homo sapiens, UniProt Q99720); experiment: DRUGMATRIX: Sigma1 radioligand binding (ligand: [3H] Haloperidol); type: cell membranes, Jurkat, Membrane; conditions: jurkat; Not Active = under 50% inhibition at 10 µM
Substance-K receptor = target: T2, Substance-K receptor (Homo sapiens, UniProt P21452); type: cell membranes, CHO, Membrane; conditions: cho; further: in other assays of this panel Not Active means under 50% inhibition at 10 µM
T2 sequence (P21452 whole entry): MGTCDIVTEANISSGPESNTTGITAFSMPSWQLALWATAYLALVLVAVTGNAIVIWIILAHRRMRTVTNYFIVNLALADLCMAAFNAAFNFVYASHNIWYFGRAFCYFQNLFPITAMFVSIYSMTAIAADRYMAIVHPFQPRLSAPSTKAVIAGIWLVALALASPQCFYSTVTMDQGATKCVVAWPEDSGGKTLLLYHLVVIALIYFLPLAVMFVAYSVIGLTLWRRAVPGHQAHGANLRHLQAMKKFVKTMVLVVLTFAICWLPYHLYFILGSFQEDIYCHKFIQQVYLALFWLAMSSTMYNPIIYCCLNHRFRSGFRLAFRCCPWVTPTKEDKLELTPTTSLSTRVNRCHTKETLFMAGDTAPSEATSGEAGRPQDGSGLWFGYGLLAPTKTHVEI

[4] = target: C-C chemokine receptor type 2 (Homo sapiens, UniProt P41597); type: cell membranes, CHO-K1, Membrane; further: in other assays of this panel Not Active means under 50% inhibition at 10 µM
[5] = target: T3, C-C chemokine receptor type 4 (Homo sapiens, UniProt P51679); type: cell membranes, Membrane; conditions: chem-1; further: in other assays of this panel Not Active means under 50% inhibition at 10 µM
T3 sequence (P51679 whole entry): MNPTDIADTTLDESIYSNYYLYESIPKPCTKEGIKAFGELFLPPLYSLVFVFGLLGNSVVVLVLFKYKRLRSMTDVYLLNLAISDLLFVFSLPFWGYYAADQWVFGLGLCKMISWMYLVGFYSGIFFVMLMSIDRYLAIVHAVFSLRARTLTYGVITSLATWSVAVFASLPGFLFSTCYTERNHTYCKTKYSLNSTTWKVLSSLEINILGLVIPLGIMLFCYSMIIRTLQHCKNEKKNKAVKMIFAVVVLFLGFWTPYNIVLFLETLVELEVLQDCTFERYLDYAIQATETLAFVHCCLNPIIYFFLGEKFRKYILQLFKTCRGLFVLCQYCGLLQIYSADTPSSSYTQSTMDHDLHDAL

[6] = target: C-C chemokine receptor type 5 (Homo sapiens, UniProt P51681); type: cell membranes, Membrane; conditions: hek293; further: in other assays of this panel Not Active means under 50% inhibition at 10 µM
[7] = target: T4, C-X-C chemokine receptor type 2 (Homo sapiens, UniProt P25025); type: cell membranes, Membrane; conditions: cho-k1; further: in other assays of this panel Not Active means under 50% inhibition at 10 µM
T4 sequence (P25025 whole entry): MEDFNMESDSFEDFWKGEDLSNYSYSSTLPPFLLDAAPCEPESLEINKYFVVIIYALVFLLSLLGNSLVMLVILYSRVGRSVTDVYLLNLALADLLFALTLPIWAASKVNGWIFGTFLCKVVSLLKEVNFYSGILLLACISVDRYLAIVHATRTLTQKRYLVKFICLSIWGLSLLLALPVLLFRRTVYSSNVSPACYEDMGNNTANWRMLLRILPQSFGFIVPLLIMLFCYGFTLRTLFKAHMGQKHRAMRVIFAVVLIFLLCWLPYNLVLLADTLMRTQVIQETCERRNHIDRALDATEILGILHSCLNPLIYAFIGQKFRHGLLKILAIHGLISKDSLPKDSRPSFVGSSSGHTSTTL

D(1A) dopamine receptor = D(1A) dopamine receptor (Homo sapiens, UniProt P21728); experiment: DRUGMATRIX: Dopamine D1 radioligand binding (ligand: [3H] SCH-23390); type: cell membranes, CHO, Membrane; conditions: cho; Not Active = under 50% inhibition at 10 µM
[8] = DRUGMATRIX: Glutamate, Kainate radioligand binding (ligand: [3H] Kainic acid); type: cell membranes, Rattus norvegicus, Wistar, Brain, Membrane; conditions: Not Active = under 50% inhibition at 10 µM
[9] = DRUGMATRIX: Leukotriene, BLT (LTB4) radioligand binding (ligand: [3H]LTB4); type: cell membranes, Membrane; conditions: u-937; Not Active = under 50% inhibition at 10 µM
[10] = target: Delta-type opioid receptor (Homo sapiens, UniProt P41143); type: cell membranes, HEK293, Membrane; conditions: hek293; further: in other assays of this panel Not Active means under 50% inhibition at 10 µM
[11] = target: Kappa-type opioid receptor (Homo sapiens, UniProt P41145); experiment: DRUGMATRIX: Opiate kappa (OP2, KOP) radioligand binding (ligand: [3H] Diprenorphine); type: cell membranes, HEK293, Membrane; conditions: hek293; Not Active = under 50% inhibition at 10 µM
[12] = target: cGMP-specific 3',5'-cyclic phosphodiesterase (Homo sapiens, UniProt O76074); experiment: DRUGMATRIX: Phosphodiesterase PDE5 enzyme inhibition (substrate: [3H]cGMP + cGMP); type: tissue-based, Platelet; conditions: platelet; Not Active = under 50% inhibition at 10 µM
[13] = target: Protein kinase C alpha type (Homo sapiens, UniProt P17252); type: cell-based; conditions: sf9
[14] = target: Mitogen-activated protein kinase 14 (Homo sapiens, UniProt Q16539); parameters: species or system Escherichia coli
Sequence of Mitogen-activated protein kinase 14 (Q16539 whole entry): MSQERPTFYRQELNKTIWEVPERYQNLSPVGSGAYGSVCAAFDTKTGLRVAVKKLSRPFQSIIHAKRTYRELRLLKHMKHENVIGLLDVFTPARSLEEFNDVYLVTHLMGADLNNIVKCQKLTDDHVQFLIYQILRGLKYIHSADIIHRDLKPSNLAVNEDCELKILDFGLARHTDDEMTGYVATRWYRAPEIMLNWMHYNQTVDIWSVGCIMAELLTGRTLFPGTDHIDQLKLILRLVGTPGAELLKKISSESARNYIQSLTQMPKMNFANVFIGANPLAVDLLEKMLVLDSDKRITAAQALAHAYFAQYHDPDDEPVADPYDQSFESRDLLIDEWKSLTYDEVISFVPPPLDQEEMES

Sequence of Kappa-type opioid receptor (P41145 whole entry): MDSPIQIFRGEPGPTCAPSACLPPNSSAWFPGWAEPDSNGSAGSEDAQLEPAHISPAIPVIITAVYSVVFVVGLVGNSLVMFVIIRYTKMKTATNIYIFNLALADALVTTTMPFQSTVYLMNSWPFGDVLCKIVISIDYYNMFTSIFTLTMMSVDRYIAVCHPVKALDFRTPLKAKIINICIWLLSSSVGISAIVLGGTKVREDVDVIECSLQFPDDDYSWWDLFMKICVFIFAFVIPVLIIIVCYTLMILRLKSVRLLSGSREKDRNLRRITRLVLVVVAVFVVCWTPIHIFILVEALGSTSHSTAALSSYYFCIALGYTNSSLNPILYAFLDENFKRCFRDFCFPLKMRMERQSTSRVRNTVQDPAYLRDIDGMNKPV
Sequence of Sigma non-opioid intracellular receptor 1 (Q99720 whole entry): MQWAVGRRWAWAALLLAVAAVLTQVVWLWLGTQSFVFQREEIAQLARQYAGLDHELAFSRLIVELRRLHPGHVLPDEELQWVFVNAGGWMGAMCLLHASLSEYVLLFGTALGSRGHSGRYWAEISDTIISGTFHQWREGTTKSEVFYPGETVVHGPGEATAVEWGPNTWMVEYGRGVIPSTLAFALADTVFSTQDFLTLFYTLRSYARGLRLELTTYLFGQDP
Sequence of Delta-type opioid receptor (P41143 whole entry): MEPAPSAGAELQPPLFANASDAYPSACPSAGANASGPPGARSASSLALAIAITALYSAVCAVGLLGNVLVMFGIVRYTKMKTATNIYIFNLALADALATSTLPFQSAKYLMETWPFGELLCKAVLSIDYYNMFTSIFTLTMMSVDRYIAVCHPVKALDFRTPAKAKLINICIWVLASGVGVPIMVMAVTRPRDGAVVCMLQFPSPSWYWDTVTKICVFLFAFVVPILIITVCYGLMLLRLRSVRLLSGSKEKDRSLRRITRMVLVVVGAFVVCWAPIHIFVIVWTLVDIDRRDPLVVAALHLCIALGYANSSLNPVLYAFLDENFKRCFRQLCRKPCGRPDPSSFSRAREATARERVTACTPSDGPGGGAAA
Sequence of D(1A) dopamine receptor (P21728 whole entry): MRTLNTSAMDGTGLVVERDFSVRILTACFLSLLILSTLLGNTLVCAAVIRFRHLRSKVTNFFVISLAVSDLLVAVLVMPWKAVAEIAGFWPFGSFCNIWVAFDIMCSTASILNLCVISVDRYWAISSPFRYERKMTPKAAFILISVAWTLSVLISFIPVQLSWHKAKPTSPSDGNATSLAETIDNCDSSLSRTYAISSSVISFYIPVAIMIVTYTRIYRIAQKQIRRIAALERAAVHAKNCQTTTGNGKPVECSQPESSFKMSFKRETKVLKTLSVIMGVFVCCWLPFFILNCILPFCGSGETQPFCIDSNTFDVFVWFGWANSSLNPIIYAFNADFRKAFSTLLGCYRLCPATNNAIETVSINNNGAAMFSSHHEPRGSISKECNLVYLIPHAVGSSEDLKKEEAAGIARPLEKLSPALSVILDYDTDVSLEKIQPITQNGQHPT
Sequence of C-C chemokine receptor type 5 (P51681 whole entry): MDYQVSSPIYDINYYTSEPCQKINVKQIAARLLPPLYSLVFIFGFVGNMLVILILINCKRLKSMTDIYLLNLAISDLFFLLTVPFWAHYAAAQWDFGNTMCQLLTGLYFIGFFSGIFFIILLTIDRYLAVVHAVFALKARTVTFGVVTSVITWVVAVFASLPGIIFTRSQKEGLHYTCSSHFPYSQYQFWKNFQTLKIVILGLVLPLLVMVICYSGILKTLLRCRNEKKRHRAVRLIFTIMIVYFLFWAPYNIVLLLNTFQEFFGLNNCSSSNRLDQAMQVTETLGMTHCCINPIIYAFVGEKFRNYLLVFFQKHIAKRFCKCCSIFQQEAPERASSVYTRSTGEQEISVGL
Sequence of C-C chemokine receptor type 2 (P41597 whole entry): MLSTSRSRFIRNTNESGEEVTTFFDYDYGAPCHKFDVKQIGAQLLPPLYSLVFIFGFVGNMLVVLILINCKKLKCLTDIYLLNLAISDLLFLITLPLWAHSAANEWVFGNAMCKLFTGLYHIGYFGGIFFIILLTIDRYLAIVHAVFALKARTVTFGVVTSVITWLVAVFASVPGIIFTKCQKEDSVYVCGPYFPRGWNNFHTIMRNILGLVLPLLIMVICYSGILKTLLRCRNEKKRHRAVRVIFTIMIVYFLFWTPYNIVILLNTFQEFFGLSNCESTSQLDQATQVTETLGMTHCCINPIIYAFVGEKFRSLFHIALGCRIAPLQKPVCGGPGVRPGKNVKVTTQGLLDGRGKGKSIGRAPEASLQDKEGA

Row | SMILES | IC50 [1] | IC50 [2] | Ki [2] | IC50 [3] | IC50 (Substance-K receptor) | IC50 ([4]; cho-k1) | IC50 [5] | IC50 [6] | IC50 [7] | IC50 (D(1A) dopamine receptor) | IC50 [8] | Ki [8] | IC50 [9] | Ki [9] | IC50 [10] | IC50 [11] | IC50 [12] | IC50 [13] | IC50 [14] | further results
1 | COc1c(C)c2c(c(O)c1C/C=C(\C)CCC(=O)OCCN1CCOCC1)C(=O)OC2 [MYCOPHENOLATE MOFETIL] | Not Active | Not Active | Not Active | Not Active | Not Active | Not Active | Not Active | Not Active | Not Active | Not Active | Not Active | Not Active | Not Active | Not Active | Not Active | Not Active | Not Active | Not Active | Not Active | –
2 | COC(=O)C1=C(C)NC(C)=C(C(=O)OC)C1c1ccccc1[N+](=O)[O-] [NIFEDIPINE] | Not Active | Not Active | Not Active | Not Active | Not Active | – | Not Active | Not Active | Not Active | Not Active | Not Active | Not Active | Not Active | Not Active | Not Active | Not Active | Not Active | Not Active | Not Active | IC50 ([4]; read-out: IC50): 2190 nM; Ki ([4]; read-out: Ki): 847 nM
3 | NC(=O)c1ncn([C@@H]2O[C@H](CO)[C@@H](O)[C@H]2O)n1 [RIBAVIRIN] | Not Active | Not Active | Not Active | Not Active | Not Active | Not Active | Not Active | Not Active | Not Active | Not Active | Not Active | Not Active | Not Active | Not Active | Not Active | Not Active | Not Active | Not Active | Not Active | –
4 | CC[C@H]1OC(=O)[C@H](C)[C@@H](O[C@H]2C[C@@](C)(OC)[C@@H](O)[C@H](C)O2)[C@H](C)[C@@H](O[C@@H]2O[C@H](C)C[C@H](N(C)C)[C@H]2O)[C@](C)(O)C[C@@H](C)/C(=N\OCOCCOC)[C@H](C)[C@@H](O)[C@]1(C)O [ROXITHROMYCIN] | Not Active | Not Active | Not Active | Not Active | Not Active | Not Active | Not Active | Not Active | Not Active | Not Active | Not Active | Not Active | Not Active | Not Active | Not Active | Not Active | Not Active | Not Active | Not Active | –
